Data taken from patent publication US8044079B2, “Substituted oxindole derivatives, medicaments containing said derivatives and use thereof” (Abbott GmbH & Co. KG, priority 2005, dated 2011).

These compounds were tested against T1, human vasopressin V1b receptor (Homo sapiens, UniProt P47901) (assay: Vasopressin V1b receptor binding test). Settings: membranes of CHO-K1 cells with human V1b receptor, displacement of 1.5 nM 3H-AVP; for compounds with more than one stereogenic center the diastereomer with greater affinity.
T1 construct: expressed in transfected cells; host or cells: CHO-K1 (cell line hV1b_3H2_CHO), membrane preparation
T1 sequence (P47901 1-424): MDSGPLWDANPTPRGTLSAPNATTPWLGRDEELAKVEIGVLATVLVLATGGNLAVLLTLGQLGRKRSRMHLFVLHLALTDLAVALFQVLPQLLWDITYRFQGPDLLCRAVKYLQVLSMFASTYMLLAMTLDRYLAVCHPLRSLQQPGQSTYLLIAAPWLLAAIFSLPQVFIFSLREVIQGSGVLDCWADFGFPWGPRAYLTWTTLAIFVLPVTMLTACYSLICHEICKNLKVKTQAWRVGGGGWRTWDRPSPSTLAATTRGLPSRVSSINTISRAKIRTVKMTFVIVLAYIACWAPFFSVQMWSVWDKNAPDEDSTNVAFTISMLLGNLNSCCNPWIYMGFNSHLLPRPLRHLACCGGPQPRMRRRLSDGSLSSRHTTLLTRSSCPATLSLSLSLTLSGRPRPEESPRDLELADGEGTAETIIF
Method in brief: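 Radioligand displacement on membranes carrying human V1b receptor in 50 mM tris, 10 mM MgCl2, 0.1% BSA, pH 7.4, 2% DMSO final; 60 min at room temperature, nonspecific binding with 1 μM AVP. Free ligand removed by filtration, bound counted by liquid scintillation, Ki from nonlinear regression of triplicates.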

Row | Ki | SMILES
1 | 10 to 100 nM | COc1ccc(S(=O)(=O)N2C(=O)C(c3cc(CN4CCNCC4)ccc3OC)(N3CCCC3c3nccs3)c3cc(Cl)ccc32)cc1 (centres unmarked) [Example 121, 5-Chloro-1-(4-methoxybenzenesulfonyl)-3-(2-methoxy-5-(piperazin-1-ylmethyl)phenyl)-3-(2-thiazol-2-yl-pyrrolidin-1-yl)-1,3-dihydroindol-2-one]
2 | 100 to 1000 nM | COc1ccc(S(=O)(=O)N2C(=O)C(c3cc(CN(C)C)ccc3OC)(N3CCCC3c3ccccn3)c3cc(Cl)ccc32)cc1 (centres unmarked) [Example 122, 5-Chloro-3-(5-dimethylaminomethyl-2-methoxyphenyl)-1-(4-methoxybenzenesulfonyl)-3-(2-pyridin-2-yl-pyrrolidin-1-yl)-1,3-dihydroindol-2-one]
3 | 100 to 1000 nM | COc1ccc(S(=O)(=O)N2C(=O)C(c3cc(CN4CCNCC4)ccc3OC)(N3CCCC3c3ccccn3)c3cc(Cl)ccc32)cc1 (centres unmarked) [Example 126, 5-Chloro-1-(4-methoxybenzenesulfonyl)-3-(2-methoxy-5-piperazin-1-ylmethylphenyl)-3-(2-pyridin-2-yl-pyrrolidin-1-yl)-1,3-dihydroindol-2-one]
4 | < 10 nM | COc1ccc(S(=O)(=O)N2C(=O)C(c3ccc(CN4CCN(CCO)CC4)cc3OC)(N3CCC[C@H]3c3ncco3)c3cc(Cl)ccc32)cc1 (stereo partly drawn) [Example 127, 5-Chloro-3-{4-[4-(2-hydroxyethyl)piperazin-1-ylmethyl]-2-methoxyphenyl}-1-(4-methoxybenzenesulfonyl)-3-((S)-2-oxazol-2-yl-pyrrolidin-1-yl)-1,3-dihydroindol-2-one]
5 | < 10 nM | COc1ccc(S(=O)(=O)N2C(=O)C(N[C@@H](C)c3ncco3)(c3cc(CN4CCN(C)CC4)ccc3OC)c3cc(Cl)ccc32)cc1 (stereo partly drawn) [Example 128, 5-Chloro-1-(4-methoxybenzenesulfonyl)-3-[2-methoxy-5-(4-methylpiperazin-1-ylmethyl)phenyl]-3-((S)-1-oxazol-2-yl-ethylamino)-1,3-dihydroindol-2-one]
6 | 10 to 100 nM | COc1ccc(S(=O)(=O)N2C(=O)C(c3cc(CNCC(F)(F)F)ccc3OC)(N3CCC[C@H]3c3ncco3)c3cc(Cl)ccc32)cc1 (stereo partly drawn) [Example 130, 5-Chloro-1-(4-methoxybenzenesulfonyl)-3-{2-methoxy-5-[(2,2,2-trifluoroethylamino)methyl]phenyl}-3-((S)-2-oxazol-2-yl-pyrrolidin-1-yl)-1,3-dihydroindol-2-one]
7 | 10 to 100 nM | CCNCc1ccc(C2(N3CCC[C@H]3c3ncco3)C(=O)N(S(=O)(=O)c3ccc(OC)cc3)c3ccc(Cl)cc32)c(OC)c1 (stereo partly drawn) [Example 131, 5-Chloro-3-(4-ethylaminomethyl-2-methoxyphenyl)-1-(4-methoxybenzenesulfonyl)-3-((S)-2-oxazol-2-yl-pyrrolidin-1-yl)-1,3-dihydroindol-2-one]
8 | 10 to 100 nM | COc1ccc(S(=O)(=O)N2C(=O)C(N[C@@H](C)c3ncco3)(c3cc(CN(C)C)ccc3OC)c3cc(Cl)ccc32)cc1 (stereo partly drawn) [Example 133, 5-Chloro-3-(5-dimethylaminomethyl-2-methoxyphenyl)-1-(4-methoxybenzenesulfonyl)-3-((S)-1-oxazol-2-yl-ethylamino)-1,3-dihydroindol-2-one]
9 | 10 to 100 nM | CCCNCc1ccc(OC)c(C2(N[C@@H](C)c3ncco3)C(=O)N(S(=O)(=O)c3ccc(OC)cc3)c3ccc(Cl)cc32)c1 (stereo partly drawn) [Example 134, 5-Chloro-1-(4-methoxybenzenesulfonyl)-3-(2-methoxy-5-propylaminomethylphenyl)-3-((S)-1-oxazol-2-yl-ethylamino)-1,3-dihydroindol-2-one]
10 | 10 to 100 nM | COc1ccc(S(=O)(=O)N2C(=O)C(c3ccc(CNC(C)C)cc3OC)(N3CCC[C@H]3c3ncco3)c3cc(Cl)ccc32)cc1 (stereo partly drawn) [Example 136, 5-Chloro-3-[4-(isopropylaminomethyl)-2-methoxyphenyl]-1-(4-methoxybenzenesulfonyl)-3-((S)-2-oxazol-2-yl-pyrrolidin-1-yl)-1,3-dihydroindol-2-one]
11 | 10 to 100 nM | COc1ccc(S(=O)(=O)N2C(=O)C(c3ccc(CN4CCNC(=O)C4)cc3OC)(N3CCC[C@H]3c3ncco3)c3cc(Cl)ccc32)cc1 (stereo partly drawn) [Example 138, 5-Chloro-1-(4-methoxybenzenesulfonyl)-3-[2-methoxy-4-(3-oxopiperazin-1-ylmethyl)phenyl]-3-((S)-2-oxazol-2-yl-pyrrolidin-1-yl)-1,3-dihydroindol-2-one]
12 | < 10 nM | COc1ccc(S(=O)(=O)N2C(=O)C(N[C@@H](C)c3ncco3)(c3cc(CNCCO)ccc3OC)c3cc(Cl)ccc32)cc1 (stereo partly drawn) [Example 140, 5-Chloro-3-{5-[(2-hydroxyethylamino)methyl]-2-methoxyphenyl}-1-(4-methoxybenzenesulfonyl)-3-((S)-1-oxazol-2-yl-ethylamino)-1,3-dihydroindol-2-one]
13 | 100 to 1000 nM | COc1ccc(CN2CCN(C)CC2)cc1C1(N2CCC[C@H]2c2ncco2)C(=O)N(S(=O)(=O)c2ccc(OC(F)(F)F)cc2)c2ccc(Cl)cc21 (stereo partly drawn) [Example 141, 5-Chloro-3-[2-methoxy-5-(4-methylpiperazin-1-ylmethyl)phenyl]-3-((S)-2-oxazol-2-yl-pyrrolidin-1-yl)-1-(4-trifluoromethoxybenzenesulfonyl)-1,3-dihydroindol-2-one]

Continued, compound first:

Row | SMILES | Ki
14 | CNCc1ccc(OC)c(C2(N3CCCC3c3ccccn3)C(=O)N(S(=O)(=O)c3ccc(OC)cc3)c3ccc(Cl)cc32)c1 (centres unmarked) [Example 120, 5-Chloro-1-(4-methoxybenzenesulfonyl)-3-(2-methoxy-5-methylaminomethylphenyl)-3-(2-pyridin-2-yl-pyrrolidin-1-yl)-1,3-dihydroindol-2-one] | 100 to 1000 nM
15 | CCCNCc1ccc(OC)c(C2(N3CCCC3c3ccccn3)C(=O)N(S(=O)(=O)c3ccc(OC)cc3)c3ccc(Cl)cc32)c1 (centres unmarked) [Example 123, 5-Chloro-1-(4-methoxybenzenesulfonyl)-3-(2-methoxy-5-propylaminomethylphenyl)-3-(2-pyridin-2-yl-pyrrolidin-1-yl)-1,3-dihydroindol-2-one] | 100 to 1000 nM
16 | COc1ccc(S(=O)(=O)N2C(=O)C(c3cc(CN4CCN(C)CC4)ccc3OC)(N3CCCC3c3ccccn3)c3cc(Cl)ccc32)cc1 (centres unmarked) [Example 124, 5-Chloro-1-(4-methoxybenzenesulfonyl)-3-[2-methoxy-5-(4-methylpiperazin-1-ylmethyl)phenyl]-3-(2-pyridin-2-yl-pyrrolidin-1-yl)-1,3-dihydroindol-2-one] | 10 to 100 nM
17 | COc1ccc(S(=O)(=O)N2C(=O)C(c3cc(CN4CCNC(=O)C4)ccc3OC)(N3CCC[C@H]3c3ncco3)c3cc(Cl)ccc32)cc1 (stereo partly drawn) [Example 125, 5-Chloro-1-(4-methoxybenzenesulfonyl)-3-[2-methoxy-5-(3-oxopiperazin-1-ylmethyl)phenyl]-3-((S)-2-oxazol-2-yl-pyrrolidin-1-yl)-1,3-dihydroindol-2-one] | 10 to 100 nM
18 | CNCc1ccc(OC)c(C2(NCc3ncco3)C(=O)N(S(=O)(=O)c3ccc(OC)cc3)c3ccc(Cl)cc32)c1 (centres unmarked) [Example 129, 5-Chloro-1-(4-methoxybenzenesulfonyl)-3-(2-methoxy-5-methylaminomethylphenyl)-3-[(oxazol-2-ylmethyl)amino]-1,3-dihydroindol-2-one] | 10 to 100 nM
19 | CCCNCc1ccc(OC)c(C2(N3CCCC3c3nccs3)C(=O)N(S(=O)(=O)c3ccc(OC)cc3)c3ccc(Cl)cc32)c1 (centres unmarked) [Example 132, 5-Chloro-1-(4-methoxybenzenesulfonyl)-3-(2-methoxy-5-propylaminomethylphenyl)-3-(2-thiazol-2-yl-pyrrolidin-1-yl)-1,3-dihydroindol-2-one] | 10 to 100 nM
20 | COc1ccc(S(=O)(=O)N2C(=O)C(N[C@@H](C)c3ncco3)(c3cc(CN4CCNCC4)ccc3OC)c3cc(Cl)ccc32)cc1 (stereo partly drawn) [Example 135, 5-Chloro-1-(4-methoxybenzenesulfonyl)-3-(2-methoxy-5-(piperazin-1-ylmethyl)phenyl)-3-((S)-1-oxazol-2-yl-ethylamino)-1,3-dihydroindol-2-one] | < 10 nM
21 | COc1ccc(S(=O)(=O)N2C(=O)C(c3ccc(CNCCO)cc3OC)(N3CCC[C@H]3c3ncco3)c3cc(Cl)ccc32)cc1 (stereo partly drawn) [Example 137, 5-Chloro-3-{4-[(2-hydroxyethylamino)methyl]-2-methoxyphenyl}-1-(4-methoxybenzenesulfonyl)-3-((S)-2-oxazol-2-yl-pyrrolidin-1-yl)-1,3-dihydroindol-2-one] | 10 to 100 nM
22 | COc1ccc(S(=O)(=O)N2C(=O)C(c3cc(CNC(C)(C)C)ccc3OC)(N3CCC[C@H]3c3ncco3)c3cc(Cl)ccc32)cc1 (stereo partly drawn) [Example 139, 5-Chloro-3-[5-(tert-butylaminomethyl)-2-methoxyphenyl]-1-(4-methoxybenzenesulfonyl)-3-((S)-2-oxazol-2-yl-pyrrolidin-1-yl)-1,3-dihydroindol-2-one] | 10 to 100 nM
23 | COc1ccc(S(=O)(=O)N2C(=O)C(c3cc(CN4CCN(CCO)CC4)ccc3OC)(N3CCC[C@H]3c3ncco3)c3cc(C#N)ccc32)cc1 (stereo partly drawn) [Example 142, 5-Cyano-3-{5-[4-(2-hydroxyethyl)piperazin-1-ylmethyl]-2-methoxyphenyl}-1-(4-methoxybenzenesulfonyl)-3-((S)-2-oxazol-2-yl-pyrrolidin-1-yl)-1,3-dihydroindol-2-one] | < 10 nM
